In test [1] the test system is human neuroblastoma strains SH-SY-5Y and SK-N-BE Bep 75. Description: Measurement of apoptosis (NGF-induced, cell death detection ELISA). To be noted: SH-SY5Y, NGF 10 ng/ml, 48 h (SH-SY-5Y) or 24 h (SK-N-BE Bep 75), cell strain not given, read-out: IC50 of NGF-induced apoptosis inhibition. The class given is cell-based. The protocol: The SH-SY-5Y strain (human neuroblastoma) is cultured conventionally in a DMEM culture medium (Dulbecco's Modified Eagle's Medium) (Gibco BRL, France) containing FCS (5%) (foetal calf serum) (Boehringer Mannheim, Germany), sodium pyruvate (1 mM) and glutamine (4 mM) in collagen-coated culture flasks (Becton Dickinson, France).
(§1) The parent strain SK-N-BE (human neuroblastoma) and the clone Bep 75, stably expressing the whole form of the human p75^NTR receptor (SK-N-BE Bep 75), are cultured conventionally in an RPMI culture medium containing FCS (5%), sodium pyruvate (1 mM) and glutamine (4 mM). For the SK-N-BE Bep 75 cells, hygromycin (200 μl/20 ml of medium) is added as selection agent.
The cells (human neuroblastoma strains SH-SY-5Y and SK-N-BE Bep 75) are placed in Petri dishes 35 mm in diameter (Biocoat collagen I (10^5 cells/well)) in an appropriate culture medium containing 5% FCS for 24 h. The culture medium is then removed, the cells are rinsed with PBS (Dulbecco's Phosphate buffered saline), and then either fresh medium containing 5% FCS, or medium containing NGF (at the concentration of 10 ng/ml) or beta-amyloid peptide (Aβ1-40) (at the concentration of 10 μM) is added, in the presence or absence of the compounds according to the invention. The degrees of apoptosis are measured 48 hours after the treatments in the case of the SH-SY-5Y strain, and 24 hours after the treatments in the case of the SK-N-BE Bep 75 strain, by quantifying the cytoplasmic histones associated with DNA fragments (cell death detection ELISA, Boehringer Mannheim, Germany). The degrees of apoptosis are expressed as quantity of oligonucleosomes/10^5 cells. Each value corresponds to the mean of 9 experimental points distributed over 3 independent experiments.
(In general: ELISA stands for enzyme-linked immunosorbent assay.)

The target of test [2] is T1, p75^NTR receptor (Homo sapiens, UniProt P08138).
T1 sequence (P08138 29-427): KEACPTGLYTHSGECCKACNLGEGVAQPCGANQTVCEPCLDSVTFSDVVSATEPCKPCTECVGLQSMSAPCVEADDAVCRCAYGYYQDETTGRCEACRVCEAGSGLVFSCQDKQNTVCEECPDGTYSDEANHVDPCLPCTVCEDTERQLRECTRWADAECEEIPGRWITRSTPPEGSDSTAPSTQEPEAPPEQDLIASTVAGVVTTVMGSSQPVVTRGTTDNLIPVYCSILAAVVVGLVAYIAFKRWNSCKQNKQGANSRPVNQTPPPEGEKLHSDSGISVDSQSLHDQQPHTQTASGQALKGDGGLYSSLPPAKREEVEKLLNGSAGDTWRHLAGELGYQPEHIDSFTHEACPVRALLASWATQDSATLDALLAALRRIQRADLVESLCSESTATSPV
Put plainly: p75NTR receptor dimerisation independently of its ligand (soluble p75NTR-alkaline phosphatase binding to SK-N-BE Bep 75 cells). Also noted: the whole form of the human p75^NTR receptor; expressed in transfected cells; host or cells: SK-N-BE Bep 75 cells (membrane receptor); HEK293 cells transfected for 48 h (secreted soluble fusion). On the procedure:
as §1
Study of p75^NTR receptor dimerisation independently of its ligand The study of p75^NTR receptor dimerisation is carried out on a cell suspension of the SK-N-BE Bep 75 strain. The cells (2.5×10^4 cells/well) are placed in wells (96-well plate) for 24 h, and then preincubated for 1 h at 37° C. in the presence or absence of the compounds according to the invention. Supernatant, derived from culturing HEK293 human cells of renal origin expressing, after transfection for 48 h, and secreting a soluble form of the p75^NTR receptor (extracellular part of the receptor) coupled to an alkaline phosphatase, is then added at the final concentration of 10 nM. The quantification of the specific binding of the soluble p75^NTR receptor to the receptor present on SK-N-BE Bep 75 cells is determined by measuring the enzymatic alkaline phosphatase activity after incubation of the cells for 1 hour at 37° C. in the presence of the supernatant. After filtration and transfer of the filters into 24-well plates, the alkaline phosphatase activity is determined by adding CDP-Star chemiluminescent substrate (ready-to-use, Roche).

The target in test [3] is T1, p75^NTR receptor. Put plainly: Binding of 125I NGF to the p75NTR receptor on SK-N-BE Bep 75 cell suspension. Also noted: the whole form of the human p75^NTR receptor; expressed in transfected cells; host or cells: SK-N-BE (human neuroblastoma), clone Bep 75, hygromycin selection. The protocol: as §1
Study of the binding of ^125I NGF to the p75^NTR receptor The study of NGF binding (nerve growth factor radiolabelled with iodine-125, Amersham—2000 Ci/mmol) is carried out on a cell suspension of the SK-N-BE Bep 75 strain in accordance with the method described by Weskamp (Neuron, 1991, 6, 649-663). The non-specific binding is determined by measuring the total binding after preincubation for one hour with cells at 37° C. in the presence of non-radiolabelled NGF (1 μM). The specific binding is calculated by the difference between the total binding measurement and the non-specific binding measurement. The competition experiments are carried out using an iodinated NGF (^125I NGF) concentration of 0.3 nM.

For `O=C(CN1CC2CCC(C1)N2c1ccc(C(F)(F)F)cn1)N1CC=C(c2cccc(C(F)(F)F)c2)CC1` [Compound No. 1, 1-[4-(3-trifluoromethylphenyl)-3,6-dihydro-2H-pyridin-1-yl]-2-[8-(5-trifluoromethylpyridin-2-yl)-3,8-diazabicyclo[3.2.1]oct-3-yl]ethanone], the IC50 (in general, the point on the concentration scale where inhibition reaches its midpoint) in test [1] was determined as 1.33 nM; on p75^NTR receptor [2] it was 23.4 nM; at p75^NTR receptor [3], 1.35 nM.

At p75^NTR receptor [3], `O=C(CN1CC2CCC(C1)N2c1ncccn1)N1CC=C(c2ccc(Cl)cc2)CC1` [Compound No. 2, 1-[4-(4-chlorophenyl)-3,6,-dihydro-2H-pyridin-1-yl]-2-(8-pyrimidin-2-yl-3,8-diazabicyclo[3.2.1]oct-3-yl)ethanone] displayed an IC50 of 0.18 nM.

Regarding `O=C(CN1C2CCC1CN(c1cnccn1)C2)N1CC=C(c2cccc(C(F)(F)F)c2)CC1` [Compound No. 3, 2-(3-pyrazin-2-yl-3,8-diazabicyclo[3.2.1]oct-8-yl)-1-[4-(3-trifluoromethylphenyl)-3,6-dihyro-2H-pyridin-1-yl]ethanone], the IC50 in test [1] was found to be 0.067 nM; at p75^NTR receptor [2] it was 0.05 nM.

For `O=C(CN1CC2CCC(C1)N2c1ccc(C(F)(F)F)cn1)N1CC=C(c2ccc(Cl)cc2)CC1` [Compound No. 7, 1-[4-(4-chlorophenyl)-3,6-dihydro-2H-pyridin-1-yl]-2-[8-(5-trifluoromethylpyridin-2-yl)-3,8-diazabicyclo[3.2.1]oct-3-yl]ethanone], the IC50 at p75^NTR receptor [3] is 0.29 nM.

`O=C(CN1CC2CCC(C1)N2c1ccc(C(F)(F)F)cn1)N1CC=C(c2ccc(Cl)c(C(F)(F)F)c2)CC1` [Compound No. 8, 1-[4-(4-chloro-3-trifluoromethylphenyl)-3,6-dihydro-2H-pyridin-1-yl]-2-[8-(5-trifluoromethylpyridin-2-yl)-3,8-diazabicyclo[3.2.1]oct-3-yl]ethanone]: the concentration for half-maximal inhibition (IC50) in test [1] worked out at 2.24 nM; at p75^NTR receptor [2] it was 0.68 nM.

On to `O=C(CN1CC2CCC(C1)N2c1ncc(F)cn1)N1CC=C(c2ccc(Cl)c(C(F)(F)F)c2)CC1` [Compound No. 11, 1-[4-(4-chloro-3-trifluoromethylphenyl)-3,6-dihydro-2H-pyridin-1-yl]-2-[8-(5-fluoropyrimidin-2-yl)-3,8-diazabicyclo[3.2.1]oct-3-yl]ethanone], for which the IC50 in test [1] turned out to be 0.21 nM; on p75^NTR receptor [2], 0.2 nM; at p75^NTR receptor [3] it was 0.98 nM.

As for `O=C(CN1CC2CCC(C1)N2c1cccnc1)N1CC=C(c2ccc(Cl)c(C(F)(F)F)c2)CC1` [Compound No. 27, 1-[4-(4-chloro-3-trifluoromethylphenyl)-3,6-dihydro-2H-pyridin-1-yl]-2-(8-pyridin-3-yl-3,8-diazabicyclo[3.2.1]oct-3-yl)ethanone], the half-inhibitory concentration (IC50) amounted to 0.088 nM in test [1] and 0.23 nM on p75^NTR receptor [2].

`COC(=O)c1ccc(N2C3CCC2CN(CC(=O)N2CC=C(c4ccc(Cl)c(C(F)(F)F)c4)CC2)C3)nc1` [Compound No. 28, 6-(3-{2-[4-(4-chloro-3-trifluoromethylphenyl)-3,6-dihydro-2H-pyridin-1-yl]-2-oxoethyl}-3,8-diazabicyclo[3.2.1]oct-8-yl)nicotinic acid methyl ester] gave an IC50 on p75^NTR receptor [2] of 9.84 nM.

In the case of `O=C(O)c1ccc(N2C3CCC2CN(CC(=O)N2CC=C(c4ccc(Cl)c(C(F)(F)F)c4)CC2)C3)nc1` [Compound No. 29, 6-(3-{2-[4-(4-chloro-3-trifluoromethylphenyl)-3,6-dihydro-2H-pyridin-1-yl]-2-oxoethyl}-3,8-diazabicyclo[3.2.1]oct-8-yl)nicotinic acid], the IC50 in test [1] is 0.22 nM; at p75^NTR receptor [2], 0.14 nM.

`COC(=O)c1cccc(C2=CCCN(C(=O)CN3CC4CCC(C3)N4c3ncc(F)cn3)C2)c1` [Compound No. 53, 3-(1-{2-[8-(5-fluoropyrimidin-2-yl)-3,8-diazabicyclo[3.2.1]oct-3-yl]acetyl}-1,2,5,6-tetrahydropyridin-3-yl)benzoic acid methyl ester] showed an IC50 at p75^NTR receptor [2] of 2.08 nM.

The values are drawn from patent publication US8519143B2, “Derivatives of (bridged piperazinyl)-1-alkanone and use thereof as p75 inhibitors” (Sanofi, priority 2008, dated 2013).
